For 31 compounds, EC50 results are on record in patent US10913727B2, “Modulators of the integrated stress pathway” (Calico Life Sciences LLC, priority 2016, dated 2021).

As a reminder, the EC50 is the concentration giving half of the maximal effect.

The subject of this test is HEK293T cells carrying the ATF4 luciferase reporter. The test can be described thus: ATF4-Luc assay, in vitro model of Vanishing Cell White Matter Disease (VWMD). In kind it is cell-based. The settings on record: Homo sapiens, HEK-293T, 1 μg/mL tunicamycin, 7 hours, One Glo luminescence. The gist of the method:
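Stable HEK293T line with human ATF4 5′-UTR–firefly luciferase reporter treated with 1 μg/mL tunicamycin plus 200 nM compound for 7 h. Luminescence read; EC50 derived.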
For `CS(=O)(=O)c1cccc(C(=O)NC23CC(NC(=O)COc4ccc(Cl)c(F)c4)(C2)C3)c1` [Compound 813, N-{3-[2-(4-chloro-3-fluorophenoxy)acetamido]bicyclo[1.1.1]pentan-1-yl}-3-(methanesulfonyl)benzamide], the EC50 is more than 2000 nM. The value for `O=C(COc1ccc(Cl)c(F)c1)NC12CC(NC(=O)c3ccc(OC(F)F)nc3)(C1)C2` [Compound 440, N-{3-[2-(4-chloro-3-fluorophenoxy)acetamido]bicyclo[1.1.1]pentan-1-yl}-6-(difluoromethoxy)pyridine-3-carboxamide] was 50 to 250 nM; that for `O=C(COc1ccc(Cl)c(F)c1)NC12CCC(NC(=O)c3coc4c3C(=O)CCC4)(CC1)C(O)C2` (stereo not shown) [Compound 222, N-{4-[2-(4-chloro-3-fluorophenoxy)acetamido]-2-hydroxybicyclo[2.2.2]octan-1-yl}-4-oxo-4,5,6,7-tetrahydro-1-benzofuran-3-carboxamide] was more than 2000 nM. For the compound `O=C(COc1ccc(Cl)c(Cl)c1)NC12CC(NC(=O)c3cc(CO)ccn3)(C1)C2` [Compound 166, N-{3-[2-(3,4-dichlorophenoxy)acetamido]bicyclo[1.1.1]pentan-1-yl}-4-(hydroxymethyl)pyridine-2-carboxamide], the EC50 was 50 to 250 nM. For `Cc1cc2ncc(C(=O)NC34CC(NC(=O)COc5ccc(Cl)c(F)c5)(C3)C4)cn2n1` [Compound 748, N-{3-[2-(4-chloro-3-fluorophenoxy)acetamido]bicyclo[1.1.1]pentan-1-yl}-2-methylpyrazolo[1,5-a]pyrimidine-6-carboxamide], the half-maximal effective concentration (EC50) lay in the range of 250 to 1000 nM.

`O=C(COc1ccc(Cl)c(F)c1)NC12CC(NC(=O)c3ccc4ncccc4n3)(C1)C2` [Compound 658, N-{3-[2-(4-chloro-3-fluorophenoxy)acetamido]bicyclo[1.1.1]pentan-1-yl}-1,5-naphthyridine-2-carboxamide]: the EC50 is 50 to 250 nM. For `CCn1cc(C(=O)NC23CC(NC(=O)COc4ccc(Cl)c(F)c4)(C2)C3)c(C)n1` [Compound 825, N-{3-[2-(4-chloro-3-fluorophenoxy)acetamido]bicyclo[1.1.1]pentan-1-yl}-1-ethyl-3-methyl-1H-pyrazole-4-carboxamide], the concentration giving a half-maximal response (EC50) fell in the range of 250 to 1000 nM. `CCc1cc(C(=O)NC23CCC(NC(=O)COc4ccc(Cl)c(F)c4)(CC2)C(O)C3)no1` (stereo not shown) [Compound 606, N-{4-[2-(4-chloro-3-fluorophenoxy)acetamido]-3-hydroxybicyclo[2.2.2]octan-1-yl}-5-ethyl-1,2-oxazole-3-carboxamide]: the half-maximal effective concentration (EC50) was in the range of 50 to 250 nM. The value for `O=C(COc1ccc(Cl)c(F)c1)NC12CC(Nc3ccc(C(F)(F)F)nc3)(C1)C2` [Compound 104, 2-(4-chloro-3-fluorophenoxy)-N-(3-{[6-(trifluoromethyl)pyridin-3-yl]amino}bicyclo[1.1.1]pentan-1-yl)acetamide] was 250 to 1000 nM.

Take `Cc1ncc(C(=O)NC23CC(NC(=O)COc4ccc(Cl)c(Cl)c4)(C2)C3)s1` [Compound 585, N-{3-[2-(3,4-dichlorophenoxy)acetamido]bicyclo[1.1.1]pentan-1-yl}-2-methyl-1,3-thiazole-5-carboxamide]: the EC50 was 50 to 250 nM. On to `O=C(COc1ccc(Cl)c(Cl)c1)NC12CC(NC(=O)c3cnc(C4CC4)o3)(C1)C2` [Compound 614, 2-cyclopropyl-N-{3-[2-(3,4-dichlorophenoxy)acetamido]bicyclo[1.1.1]pentan-1-yl}-1,3-oxazole-5-carboxamide], for which the concentration for a half-maximal effect (EC50) lay in the range of 50 to 250 nM.

Regarding `Cc1csc(C(=O)NC23CCC(NC(=O)COc4ccc(Cl)c(F)c4)(CC2)C(O)C3)c1` (stereo not shown) [Compound 622, N-{4-[2-(4-chloro-3-fluorophenoxy)acetamido]-3-hydroxybicyclo[2.2.2]octan-1-yl}-4-methylthiophene-2-carboxamide], the EC50 was less than 50 nM. For the compound `O=C(COc1ccc(Cl)c(F)c1)NC12CC(NC(=O)c3cncc(F)c3)(C1)C2` [Compound 792, N-{3-[2-(4-chloro-3-fluorophenoxy)acetamido]bicyclo[1.1.1]pentan-1-yl}-5-fluoropyridine-3-carboxamide], the EC50 fell in the range of 250 to 1000 nM.

With `CC(C)c1nnsc1C(=O)NC12CC(NC(=O)COc3ccc(Cl)c(F)c3)(C1)C2` [Compound 893, N-{3-[2-(4-chloro-3-fluorophenoxy)acetamido]bicyclo[1.1.1]pentan-1-yl}-4-(propan-2-yl)-1,2,3-thiadiazole-5-carboxamide], the half-maximal effective concentration (EC50) lay within 1000 to 2000 nM.

As for `Cc1nn(C)cc1C(=O)NC12CC(NC(=O)COc3ccc(Cl)c(F)c3)(C1)C2` [Compound 846, N-{3-[2-(4-chloro-3-fluorophenoxy)acetamido]bicyclo[1.1.1]pentan-1-yl}-1,3-dimethyl-1H-pyrazole-4-carboxamide], the concentration for a half-maximal effect (EC50) fell in the range of 1000 to 2000 nM.

For the compound `Cc1cnc(C(=O)NC23CCC(NC(=O)COc4ccc(Cl)c(F)c4)(CC2)CC3O)cn1` (stereo not shown) [Compound 220, N-{4-[2-(4-chloro-3-fluorophenoxy)acetamido]-2-hydroxybicyclo[2.2.2]octan-1-yl}-5-methylpyrazine-2-carboxamide], the 50% effective concentration (EC50) was 50 to 250 nM. On to `Cn1nc(C2CC2)cc1C(=O)NC12CC(NC(=O)COc3ccc(Cl)c(F)c3)(C1)C2` [Compound 329, N-{3-[2-(4-chloro-3-fluorophenoxy)acetamido]bicyclo[1.1.1]pentan-1-yl}-3-cyclopropyl-1-methyl-1H-pyrazole-5-carboxamide], for which the EC50 is 50 to 250 nM. As for `COc1nc(C)c(C(=O)NC23CC(NC(=O)COc4ccc(Cl)c(F)c4)(C2)C3)s1` [Compound 872, N-{3-[2-(4-chloro-3-fluorophenoxy)acetamido]bicyclo[1.1.1]pentan-1-yl}-2-methoxy-4-methyl-1,3-thiazole-5-carboxamide], the EC50 was 50 to 250 nM. As for `Cc1cc2c(NC34CC(NC(=O)COc5ccc(OC(F)(F)F)cc5)(C3)C4)nccn2n1` [Compound 423, N-{3-[(2-methylpyrazolo[1,5-a]pyrazin-4-yl)amino]bicyclo[1.1.1]pentan-1-yl}-2-[4-(trifluoromethoxy)phenoxy]acetamide], the EC50 fell in the range of 250 to 1000 nM. The value for `O=C(COc1ccc(Cl)c(F)c1)NC12CC(Nc3ccn4nccc4n3)(C1)C2` [Compound 609, 2-(4-chloro-3-fluorophenoxy)-N-{3-[(pyrazolo[1,5-a]pyrimidin-5-yl)amino]bicyclo[1.1.1]pentan-1-yl}acetamide] was 1000 to 2000 nM; that for `COCC(=O)Nc1ccccc1C(=O)NC12CC(NC(=O)COc3ccc(Cl)c(F)c3)(C1)C2` [Compound 887, N-{3-[2-(4-chloro-3-fluorophenoxy)acetamido]bicyclo[1.1.1]pentan-1-yl}-2-(2-methoxyacetamido)benzamide] was 250 to 1000 nM. As to `O=C(COc1ccc(Cl)c(F)c1)NC12CCC(NC(=O)c3cnc(C(F)(F)F)cn3)(CC1)C[C@@H]2O` [Compound 652, N-{(3S)-4-[2-(4-chloro-3-fluorophenoxy)acetamido]-3-hydroxybicyclo[2.2.2]octan-1-yl}-5-(trifluoromethyl)pyrazine-2-carboxamide], the EC50 was less than 50 nM. Take `O=C(COc1ccc(Cl)c(F)c1)NC12CCC(NC(=O)c3cnc(C(F)F)cn3)(C1)C2` [Compound 296, N-{4-[2-(4-chloro-3-fluorophenoxy)acetamido]bicyclo[2.1.1]hexan-1-yl}-5-(difluoromethyl)pyrazine-2-carboxamide]: the concentration for a half-maximal effect (EC50) is 50 to 250 nM. Consider `Cc1nn(C)c2ncnc(NC34CC(NC(=O)COc5ccc(Cl)c(F)c5)(C3)C4)c12` [Compound 435, 2-(4-chloro-3-fluorophenoxy)-N-{3-[(1,3-dimethyl-1H-pyrazolo[3,4-d]pyrimidin-4-yl)amino]bicyclo[1.1.1]pentan-1-yl}acetamide], for which the EC50 was more than 2000 nM. For `O=C(COc1ccc(Cl)c(F)c1)NC12CC(NC(=O)c3noc4ccccc34)(C1)C2` [Compound 346, N-{3-[2-(4-chloro-3-fluorophenoxy)acetamido]bicyclo[1.1.1]pentan-1-yl}-1,2-benzoxazole-3-carboxamide], the EC50 was 250 to 1000 nM. Consider `O=C(COc1ccc(Cl)c(F)c1)NC12CC(NC(=O)c3cc(CCO)ccn3)(C1)C2` [Compound 282, N-{3-[2-(4-chloro-3-fluorophenoxy)acetamido]bicyclo[1.1.1]pentan-1-yl}-4-(2-hydroxyethyl)pyridine-2-carboxamide], for which the EC50 fell in the range of 250 to 1000 nM. Regarding `CN(C(=O)COc1ccc(Cl)c(F)c1)C12CC(N(C)C(=O)c3cnc(C(F)F)cn3)(C1)C2` [Compound 362, N-(3-{[(4-chloro-3-fluorophenoxy)acetyl](methyl)amino}bicyclo[1.1.1]pentan-1-yl)-5-(difluoromethyl)-N-methylpyrazine-2-carboxamide], the concentration for a half-maximal effect (EC50) is more than 2000 nM. Regarding `Cc1nc(C(=O)NC23CCC(NC(=O)COc4ccc(Cl)c(Cl)c4)(CC2)[C@@H](O)C3)n[nH]1` [Compound 702, N-{(3S)-4-[2-(3,4-dichlorophenoxy)acetamido]-3-hydroxybicyclo[2.2.2]octan-1-yl}-5-methyl-1H-1,2,4-triazole-3-carboxamide], the EC50 is less than 50 nM. Turning to `Cc1cc(C(=O)NC23CC(NC(=O)COc4ccc(Cl)c(F)c4)(C2)C3)nn1C` [Compound 848, N-{3-[2-(4-chloro-3-fluorophenoxy)acetamido]bicyclo[1.1.1]pentan-1-yl}-1,5-dimethyl-1H-pyrazole-3-carboxamide], the EC50 was less than 50 nM. For the compound `Cc1oncc1C(=O)NC12CCC(NC(=O)COc3ccc(Cl)c(F)c3)(CC1)C(O)C2` (stereo not shown) [Compound 604, N-{4-[2-(4-chloro-3-fluorophenoxy)acetamido]-3-hydroxybicyclo[2.2.2]octan-1-yl}-5-methyl-1,2-oxazole-4-carboxamide], the EC50 is more than 2000 nM. For the compound `CC(=O)N1CCC(c2ncc(C(=O)NC34CC(NC(=O)COc5ccc(Cl)c(F)c5)(C3)C4)o2)CC1` [Compound 148, 2-(1-acetylpiperidin-4-yl)-N-{3-[2-(4-chloro-3-fluorophenoxy)acetamido]bicyclo[1.1.1]pentan-1-yl}-1,3-oxazole-5-carboxamide], the 50% effective concentration (EC50) is more than 2000 nM.
